Patent publication US4910012A, “Products containing Tc-99-m-ωalkylphosphinico-1-hydroxyalkane-1,1-diphosphonates for bone scintigraphy and a process for the preparation of these products” (Hoechst Aktiengesellschaft, priority 1988, dated 1990)

Columns and labels:
[1] = system: osteosarcoma; assay: Scintigraphy in osteosarcoma model, ratio (Q) of count density in the tumor to that in the contralateral tibia; format: in vivo, Sprague-Dawley rats; conditions: 0.01 mg i.v., 9.25 MBq Tc-99m, 4 weeks after tumor implantation
Description: Tc-99m-HMPD was tested on the model of osteosarcoma in Sprague-Dawley rats. […] The investigation was carried out 4 weeks after tumor implantation on a total of 30 animals. 1. Investigation schedule:
Day 1 Tc-99m-MDP (reference substance)
Scintigraphy 1, 90 and 180 minutes after injection
Storage of the scintigraphic data for the evaluation 2. Evaluation
Measurement of whole-body activity from the scintigraphic data
Ratio (Q) of the count density per unit area in the tumor to that in the contralateral tibia
Comparison of the quotient QHMPD with that for the products QMDP and QDBA-MDP.

[2] = Organ distribution of Tc-99m-HMPD in the rat 2 h after injection as a function of the amount administered (Table 3); format: in vivo; conditions: for Bladder + urine / Blood / Bone / Kidneys / Liver / Lung / Muscle / Stomach / Thyroid: i.v., 2 h
Description: The product prepared as in Example 2 (pH=7) was used for the following experiment.
Organ distribution of Tc-99m-HMPD in the rat
(n = 3) 2 h after injection as a function of
the amount administered (mg) and as a % of the
injected dose per organ or tissue. The various
HMPD amounts were administered i.v. in 0.1 ml

[3] = Stability of Tc-99m-HMPD by gel chromatography on polyacrylamide gel (Bio Gel P-10), up to 24 h after preparation; format: physicochemical; conditions: for % Activity in the HMPD: eluent 0.9% NaCl
Description: The labeling yield of Tc-99m-HMPD was determined, and the purity and stability were tested, by thin-layer chromatographic methods, gel filtration and HPLC.
2. The stability for a period of up to 24 h after preparation was tested by gel chromatography on polyacrylamide gel (Bio Gel® P-10, manufactured by Bio-Rad, California, USA) using 0.9% NaC1 solution as eluent (FIG. 1). The proportion of the activity in the HMPD, that in the form of pertechnetate and that remaining on the column were measured (Table 1). The latter is greater than the proportion of ^99m -Tc^4+ because non-specific adsorption of technetium to the support material is always observed.

[4] = system: lesion / normal bone; assay: Ratio Q of Tc-99m uptake in a lesion to uptake in normal bone (own investigations); format: in vivo; conditions: compared with A-EDP, DMA-MDP, EA-MDP, DEA-MDP; Q=(% Tc/g of lesion)/(% Tc/g of normal bone)
Excerpt: Many investigations carried out to date have been devoted to the search for compounds having a more favorable uptake ratio between the lesion and normal skeleton.

[5] = in words, cited from earlier work
[6] = system: bone lesions; conditions: compared with DPD and MDP; cited from earlier work

Question: For “1-hydroxy-3-methylphosphinico-1,1-propanediphosphonic acid [Tc-99m-HMPD]”, which “Lesion quotient (Q)” value [1] is on record?
Answer: 1.27

Question: And the “Bladder + urine” value ([2]; 0.001 mg)?
Answer: 54.1 % of the injected dose per org

Question: What about the Blood ([2]; 0.001 mg) of the same molecule?
Answer: 0.7 % of the injected dose per org

Question: And the Bone ([2]; 0.001 mg)?
Answer: 32.9 % of the injected dose per org

Question: And the Kidneys ([2]; 0.001 mg)?
Answer: 1.51 % of the injected dose per org

Question: What about the Liver ([2]; 0.001 mg) of the same molecule?
Answer: 0.27 % of the injected dose per org

Question: What about the Lung ([2]; 0.001 mg) of the same molecule?
Answer: 0.080 % of the injected dose per org

Question: And the Muscle ([2]; 0.001 mg)?
Answer: 0.8 % of the injected dose per org

Question: And the Stomach ([2]; 0.001 mg)?
Answer: 0.151 % of the injected dose per org

Question: And the Thyroid ([2]; 0.001 mg)?
Answer: 0.008 % of the injected dose per org

Question: And the “Bladder + urine” value ([2]; 0.01 mg)?
Answer: 55.6 % of the injected dose per org

Question: And the Blood ([2]; 0.01 mg)?
Answer: 0.4 % of the injected dose per org

Question: And the Bone ([2]; 0.01 mg)?
Answer: 34.7 % of the injected dose per org

Question: What about the Kidneys ([2]; 0.01 mg) of the same molecule?
Answer: 1.05 % of the injected dose per org

Question: What about the Liver ([2]; 0.01 mg) of the same molecule?
Answer: 0.18 % of the injected dose per org

Question: What about the Lung ([2]; 0.01 mg) of the same molecule?
Answer: 0.048 % of the injected dose per org

Question: What about the Muscle ([2]; 0.01 mg) of the same molecule?
Answer: 0.6 % of the injected dose per org

Question: And the Stomach ([2]; 0.01 mg)?
Answer: 0.091 % of the injected dose per org

Question: What about the Thyroid ([2]; 0.01 mg) of the same molecule?
Answer: 0.008 % of the injected dose per org

Question: What about the “Bladder + urine” value ([2]; 0.1 mg) of the same molecule?
Answer: 56.9 % of the injected dose per org

Question: What about the Blood ([2]; 0.1 mg) of the same molecule?
Answer: 0.4 % of the injected dose per org

Question: What about the Bone ([2]; 0.1 mg) of the same molecule?
Answer: 32.6 % of the injected dose per org

Question: What about the Kidneys ([2]; 0.1 mg) of the same molecule?
Answer: 0.94 % of the injected dose per org

Question: What about the Liver ([2]; 0.1 mg) of the same molecule?
Answer: 0.17 % of the injected dose per org

Question: And the Lung ([2]; 0.1 mg)?
Answer: 0.480 % of the injected dose per org

Question: What about the Muscle ([2]; 0.1 mg) of the same molecule?
Answer: 0.6 % of the injected dose per org

Question: What about the Stomach ([2]; 0.1 mg) of the same molecule?
Answer: 0.092 % of the injected dose per org

Question: And the Thyroid ([2]; 0.1 mg)?
Answer: 0.011 % of the injected dose per org

Question: And the “Bladder + urine” value ([2]; 1 mg)?
Answer: 59.1 % of the injected dose per org

Question: What about the Blood ([2]; 1 mg) of the same molecule?
Answer: 0.8 % of the injected dose per org

Question: And the Bone ([2]; 1 mg)?
Answer: 28.7 % of the injected dose per org

Question: What about the Kidneys ([2]; 1 mg) of the same molecule?
Answer: 1.03 % of the injected dose per org

Question: And the Liver ([2]; 1 mg)?
Answer: 0.22 % of the injected dose per org

Question: What about the Lung ([2]; 1 mg) of the same molecule?
Answer: 0.079 % of the injected dose per org

Question: And the Muscle ([2]; 1 mg)?
Answer: 1.1 % of the injected dose per org

Question: What about the Stomach ([2]; 1 mg) of the same molecule?
Answer: 0.090 % of the injected dose per org

Question: And the Thyroid ([2]; 1 mg)?
Answer: 0.007 % of the injected dose per org

Question: And the “liver uptake with larger administered amounts” value ([2]; in words)?
Answer: no increase in liver uptake at the expense of skeletal accumulation

Question: And the “% Tc-99m Residue on the column” value ([3]; 5 min after preparation)?
Answer: 6.8%

Question: What about the “% Tc-99m as pertechnetate” value ([3]; 5 min after preparation) of the same molecule?
Answer: 0.6%

Question: What about the “% Activity in the HMPD” value ([3]; 5 min after preparation) of the same molecule?
Answer: 92.6%

Question: What about the “% Tc-99m Residue on the column” value ([3]; 2 h after preparation) of the same molecule?
Answer: 7.5%

Question: And the “% Tc-99m as pertechnetate” value ([3]; 2 h after preparation)?
Answer: 0.4%

Question: What about the “% Activity in the HMPD” value ([3]; 2 h after preparation) of the same molecule?
Answer: 92.1%

Question: And the “% Tc-99m Residue on the column” value ([3]; 7 h after preparation)?
Answer: 4.6%

Question: What about the “% Tc-99m as pertechnetate” value ([3]; 7 h after preparation) of the same molecule?
Answer: 0.4%

Question: And the “% Activity in the HMPD” value ([3]; 7 h after preparation)?
Answer: 95.0%

Question: What about the “% Tc-99m Residue on the column” value ([3]; 24 h after preparation) of the same molecule?
Answer: 5.2%

Question: And the “% Tc-99m as pertechnetate” value ([3]; 24 h after preparation)?
Answer: 0.8%

Question: What about the “% Activity in the HMPD” value ([3]; 24 h after preparation) of the same molecule?
Answer: 94.0%

Question: And the product stability ([3]; summary in words)?
Answer: stable for a whole working day

Question: What about the “proportion of Tc-99m activity present in the HMPD” value ([3]; up to 24 h after preparation) of the same molecule?
Answer: more than 90%

Question: Which “ratio Q for uptake of Tc-99m in a lesion vs normal bone” value [4] does the source give for `CCCCN(CCCC)C(P(=O)(O)O)P(=O)(O)O` [DBA-MDP, N,N-dibutylaminomethanediphosphonic acid] here?
Answer: by far the highest ratios Q

Question: What about the “Lesion quotient (Q)” value [1] of the same molecule?
Answer: 1.16

Question: And the blood clearance ([5]; current state of knowledge)?
Answer: not optimal

Question: What about the bone/background ratio [5] of the same molecule?
Answer: relatively poor

Question: And the “accumulation in the lesions” value [6]?
Answer: distinctly higher

Question: For `O=P(O)(O)CP(=O)(O)O` [MDP, methanediphosphonic acid], which “Lesion quotient (Q)” value [1] is on record?
Answer: 1.0
